Laboratory results taken from patent US10955415B2, “CD247 as a biomarker for assessing the effect of chemotherapeutic and biological drugs” (YISSUM RESEARCH DEVELOPMENT COMPANY OF THE HEBREW …, priority 2011, dated 2021).
Entries after “also recorded” stand apart in the source; their conditions may differ.

Assays:
MDSCs (Gr1+CD11b+) [1] = tested on: MDSCs (Gr1+CD11b+); set-up: species or system mice; conditions: mouse, in vivo
CD4+Foxp3+ Treg cells = tested on: CD4+Foxp3+ Treg cells; set-up: species or system mice; conditions: mouse, in vivo
CD3ε chain = tested on: CD3ε chain; set-up: species or system mice; conditions: mouse, in vivo
[2] = tested on: CD247 in NK (NCR1+) cells; test: CD247 expression in gated NK (NCR1+) cells from spleen; type: in vivo; conditions: spleen of BCG-inflamed mice, monotherapy
Description: FIG. 2E. CD247 expression was measured gating on NK (NCR1+) cells derived from the spleens of each group. Data from three independent experiments is presented (n=4). Statistical analyses using t test indicated significant differences at 95% Cl. Means and SEM are shown. *, P<0.05.
(§1) Isolated splenocytes and peripheral blood leukocytes (PBLs) were treated with erythrocyte lysis buffer and washed in PBS. Cells were pre-coated with anti-CD16/CD32 (Biolegend) for FcR blockage. For surface staining, cells were incubated for 30 min at 4° C. with FITC-labeled anti-Gr1, anti-CD11c, and anti-CD4; PE-labeled anti F4/80, anti-CD3ε, anti-CD45R/B220, and anti-mNKp46; and biotinylated anti-CD11b and anti-CD8 that were detected with streptavidin-Cy5 (Biolegend and eBioscience). Intracellular staining of CD247 cells was performed by subjecting the cells to fixation with paraformaldehyde (1%) for 20 min at 4° C., followed by washing and permeabilization for 10 min with saponin detergent (0.1%) at room temperature (RT). Cells were then washed and incubated with FITC-labeled monoclonal anti-CD247 (H146) (Abcam), or biotinylated monoclonal anti-CD247 (H146), which were subsequently detected with streptavidin-Cy5. FoxP3 staining was performed according to the manufacturer's instructions. Samples were analyzed using FACSCalibur with Cell Quest software (BD).

MDSCs [3] = type: in vivo, mice; conditions: mouse, in vivo
CD247 [4] = test: Adoptive transfer of CFSE-labeled normal splenocytes, CD247 in host and donor cells; type: in vivo, mice; conditions: BCG-inflamed hosts, 24 h after transfer, spleen
Description: CFSE-labeled splenocytes from normal mice (donor cells) were adoptively transferred into mice untreated, inflamed, and inflamed treated i.p. with irinotecan (hosts). After 24 h, splenocytes from each group were harvested and stained for CD247 expression (MFI) in CD3+ T cells within the CFSE+ (donor-cell) or CFSE− (host-cell) population. Data from three independent experiments (n=4) is presented. Statistical analyses using t test indicated significant differences at 95% Cl. Means and SEM are shown. * P<0.05. Abbreviations: Ho. (host), Do. (donor), cont. (control).
CFSE-labeled splenocytes from normal mice (donor cells) were adoptively transferred into non-inflamed, inflamed, and inflamed mice treated i.p. with 5-FU (hosts). After 24 h, splenocytes from each group were harvested and stained for CD247 expression (MFI) in CD3+ T cells within the CFSE+ (donor-cell) or CFSE− (host-cell) population. Data from three independent experiments (n=4) is presented. Statistical analyses using t test indicated significant differences at 95% Cl. Means and SEM are shown. *, P<0.05. Abbreviations: Ho. (host), Do. (donor), cont. (control).
Next, the effect of etanercept treatment on the host's immune status as well as on adoptively transferred T- and NK-cells was examined. It should be noted that adoptively transferred T- and NK-cells being a treatment that is frequently used today in different immunotherapeutic regiments for various pathologies. To this end, CFSE-labeled normal splenocytes were administered, i.v., 1 day before cell harvest, at the peak of the inflammatory response (mimicking cell mediated therapies).

TNFα, IL-6, IFNγ = test: Real Time PCR of inflammatory cytokines in MDSCs and total splenocytes; type: in vivo, mice; conditions: relative to inflamed untreated; for mRNA levels of TNFα and IL-6: spleen-derived MDSCs and total splenocytes
[5] = tested on: CD11b+CD11c+ and CD11b+F4/80+ cells; test: Myeloid differentiation state in spleen (DCs, macrophages, APC maturation); type: in vivo; conditions: BCG-inflamed mice
Description: FIG. 18A-18E. Splenocytes and PBLs from mice untreated (naïve), inflamed, or inflamed and treated with 5-FU or CPT-11 were fixed, permeabilized, and double stained for the expression of CD247 (ζ-chain) (FIGS. 18A, 18B) and CD3ε-chain (FIGS. 18D, 18E), as shown by mean fluorescence intensity (MFI), measured in gated CD3^+ cells. FIG. 18C: Splenocytes from mice, naïve, inflamed and inflamed treated with 5-FU or CPT-11, were labeled with CFSE and activated with anti-CD3 and anti-CD28 antibodies or left non-activated. The proliferative response was assessed by monitoring cell divisions of gated CFSE-labeled Thy1.2+ (CD90+) T-cells. The percent of proliferating cells was calculated and compared to steady state levels of non-activated cells per each group. Data from three independent experiments is presented (n=3). Statistical analyses using t test indicated significant differences at 95%. Means and SEM are shown. *, P<0.05; **, P<0.01. FIG. 18F-18I. For the detection of myeloid differentiation state, splenocytes from each group were stained for (18F) DC11b^+CD11c^+ cells (representing DCs), (18G) DC11b^+F4/80^+ cells (representing monocytes), (18H) CD11c^+MHCII^+CD80^+ cells (representing fully differentiated […] as antigen presenting cells) and (18I) F4/80^+MHCII^+CD80^+ cells (representing fully differentiated […] as antigen presenting cells). Data from three independent experiments (n=4) is presented. Statistical analyses using t test indicated significant differences at 95%. Means and SEM are shown. *, P<0.05; **, P<0.01; ***, P<0.001. Abbreviations: Nor. (normal), Rel. (relative), Inf. (inflamed), ce. Pro. (cell proliferation)
as §1

MDSCs (Gr1+CD11b+) [6] = test: MDSC accumulation in spleen and PBLs, AOM/DSS colorectal cancer (CRC) mouse model; type: in vivo; conditions: CRC (AOM/DSS) mice, i.p., vs untreated CRC group
Description: The mouse model for CRC was used as described in Experimental procedures. […] Mice were sacrificed at week +11, three weeks after the second DSS treatment. […] Graphs represent the percent of MDSCs presented within the spleen (FIG. 21A) and PBLs (FIG. 21C). Data from three independent experiments (n=3) is presented. […] Means and SEM are shown. *, P<0.05; **, P<0.01; ***, P<0.001.
The mouse model for CRC was established by two repeated injections of azoxymethane (AOM) (Sigma) in intervals of two weeks followed by two weekly administrations of DSS (Sigma) that was added to drinking water every two weeks for duration of about seven days. […] Mice were sacrificed at week +11, three weeks after the second DSS treatment.

CD247 (ζ-chain) = test: CD247 expression in spleen and PBLs, CRC mouse model; type: in vivo; conditions: CRC (AOM/DSS) mice, vs untreated CRC-bearing mice
Description: Means and SEM are shown. *, P<0.05; **, P<0.01. […] (normal).

MDSCs [7] = test: MDSC infiltration in colon lamina propria and epithel, CRC mouse model; type: in vivo; conditions: CRC-bearing mice, tumor tissue
CD247 [8] = test: CD247 expression in T cells infiltrating the colon, CRC mouse model; type: in vivo; conditions: CRC-bearing mice

| SMILES | MDSC levels in peripheral blood (PBLs) (MDSCs (Gr1+CD11b+) [1]) | MDSC levels in the spleen (MDSCs (Gr1+CD11b+) [1]) | levels of Treg cells (CD4+Foxp3+) in spleen (CD4+Foxp3+ Treg cells) | CD3ε expression levels (CD3ε chain) | CD247 expression in NK (NCR1+) cells [2] | NO production by MDSCs (MDSCs [3]) | ROS production by MDSCs (MDSCs [3]) | reduction of hROS of MDSCs (MDSCs [3]) | CD247 expression in host and adoptively transferred donor T cells (CD247 [4]) | mRNA levels of TNFα and IL-6 (TNFα, IL-6, IFNγ) | differentiated myeloid cells in spleen (CD11b+CD11c+ DCs, CD11b+F4/80+ macrophages) [5] | maturation of antigen presenting cells (CD80 and MHCII expression) [5] | MDSC percentage in PBLs (MDSCs (Gr1+CD11b+) [6]) | MDSC percentage in spleen (MDSCs (Gr1+CD11b+) [6]) | CD247 expression levels in spleen and blood (CD247 (ζ-chain)) | MDSCs infiltration in lamina propria and colon epithelial tissue (MDSCs [7]) | CD247 expression levels in T cells infiltrating the colon (CD247 [8]) | CD247 expression in NK (NCR1+) cells ([2]; listed as CPT11) | CD247 expression in NK (NCR1+) cells ([2]; listed as CPT-11) | mRNA level of IFNγ (TNFα, IL-6, IFNγ; MDSCs and total spleen-population) |
| --- | --- | --- | --- | --- | --- | --- | --- | --- | --- | --- | --- | --- | --- | --- | --- | --- | --- | --- | --- | --- |
| O=c1[nH]cc(F)c(=O)[nH]1 [5-FU, 5-Fluorouracil] | significant decline; also recorded: decrease; also recorded: reduced | significant decline; also recorded: decrease; also recorded: reduced | remained unchanged | rather constant; also recorded: not down regulated | recovery from immunosuppression; also recorded: almost completely recovered | decreased | decreased | better results | clear significant increase | no significant changes | significant turning towards differentiated myeloid population | enhanced the maturation | significant decrease | significant decrease | significantly recovered | significantly reduced | elevated |  |  |  |
| CCc1c2c(nc3ccc(OC(=O)N4CCC(N5CCCCC5)CC4)cc13)-c1cc3c(c(=O)n1C2)COC(=O)[C@]3(O)CC [Irinotecan] | remained high; also recorded: no changes | significantly enhanced; also recorded: significantly increased | remained unchanged | remained unchanged; also recorded: not down regulated |  | significant elevation; also recorded: did not result in any further changes | significant elevation; also recorded: significantly increased |  | significant further decrease | no significant changes | blockage of the myeloid cell differentiation and maturation |  | no changes | significantly increased | low as in the case of CRC-bearing, non-treated mice | significantly increased | Reduced levels | low CD247 expression | remained down-regulated with no further decrease | decreased |
